Results reported in publication PMC10689823, “Discovery of a Drug-like, Natural Product-Inspired DCAF11 Ligand Chemotype” (Nature Communications, 2023).
“And” between values parts separate entries of the source, which are not always exact repeats. Equal values may be shown once.

System: BRD2
Assay: In-Cell Western for BRD2 levels in Hep G2 cells
Format: cell-based
Details: then 9 (10 μM, 4 h); for BRD2/Vinculin intensity (relative to control group): Hep G2 cells, pretreated with compound at 30 μM 1 h, single repeats, Fig. 4h; for Value (Mean ± SD): Relative BRD2 levels remaining in Hep G2 cells after treatment with compounds followed by treatment with 9, with DMSO control for normalization: qualitative ICW assay, pretreated at 30 μM 1 h, Supplementary Table 1
Procedure: Hep G2 cells were seeded in 96-well plates and incubated for 24 h. Compounds were added for the indicated time at the indicated concentration. Cells were then washed once with PBS and fixed with 4% paraformaldehyde for 30 min at room temperature. The fixed cells were permeabilized with 0.5 % Triton-X100 for 15 min followed by block with Intercept® Blocking Buffer (LI-COR Biosciences, 927-70001) for 1 h at room temperature. Primary antibodies for BRD2 (1:800) and Vinculin (1:2000) were diluted with LI-COR buffer and incubated with the cells at 4 °C overnight. Cells were washed with PBS-T, and the secondary antibodies conjugated to IRDye (1:1000, LI-COR Biosciences) were added to the cells for 1 h at room temperature. After washing the cells, the signal was recorded with the Odyssey® CLx Infrared Imaging System (LI-COR Biosciences) and the protein levels were analyzed by Image Studio (LI-COR Biosciences). BRD2 protein levels were normalized to the levels of reference protein vinculin.

SMILES | BRD2/Vinculin intensity (relative to control group) | Value (Mean ± SD): Relative BRD2 levels remaining in Hep G2 cells after treatment with compounds followed by treatment with 9, with DMSO control for normalization
CC(=O)N1C(=O)C(=Cc2cc(Br)c(OCCO)c(Br)c2)c2cc(Br)ccc21 (mixture of isomers) [Compound 40] | 50.1992 and 43.5119 and 52.0339 and 53.5687 | 49.83 ± 3.84
CN1C(=O)C(=Cc2cc(Br)c(OCCO)c(Br)c2)c2cc(Br)ccc21 (mixture of isomers) [Compound 45] | 68.8291 and 61.2096 and 73.2245 and 67.5028 | 67.69 ± 4.30
O=C1Nc2cc(Cl)ccc2C1=Cc1c[nH]c2ccc(Br)cc12 [Compound 19] | 19.139 and 23.0411 and 26.0065 and 21.6242 | 22.45 ± 2.48
Cc1cc(C=C2C(=O)Nc3cc(Cl)ccc32)c(C)n1-c1ccc(Cl)cc1 [Compound 20] | 18.6668 and 28.7239 and 22.4508 and 22.3561 | 23.05 ± 3.61
Cc1ccc(C=C2C(=O)Nc3ccc(Br)cc32)o1 [Compound 21] | 35.3621 and 27.9558 and 29.5667 and 18.9355 | 27.96 ± 5.89
CCn1cc(C=C2C(=O)N(C)c3ccccc32)c2ccccc21 [Compound 22] | 27.5998 and 30.1143 and 27.5093 and 28.0162 | 28.31 ± 1.06
Cc1cccc(-n2c(C=C3C(=O)Nc4ccc(Br)cc43)nc3ccccc3c2=O)c1 [Compound 23] | 33.3864 and 29.794 and 26.5816 and 25.9636 | 28.93 ± 2.95
O=C1Nc2ccc(Br)cc2C1=Cc1ccc(-c2ccc(Cl)cc2)o1 [Compound 24] | 33.2997 and 37.4269 and 27.7324 and 30.7224 | 32.30 ± 3.56
CCOC(=O)c1ccc(-c2ccc(C=C3C(=O)Nc4ccc(Br)cc43)o2)cc1 [Compound 25] | 36.1651 and 31.9974 and 32.0528 and 31.1097 | 32.83 ± 1.96
O=C1Nc2ccc(Br)cc2C1=Cc1ccc2ccccc2n1 [Compound 26] | 39.8782 and 39.8556 and 38.9972 and 37.1452 | 38.97 ± 1.11
COc1cccc(C=C2C(=O)Nc3ccc(Br)cc32)c1OCc1ccccc1 [Compound 27] | 30.4848 and 27.4717 and 21.0618 and 23.6161 | 25.66 ± 3.60
O=C1Nc2ccccc2C1=CC=Cc1ccccc1 [Compound 28] | 22.3518 and 31.2898 and 26.3948 and 28.7193 | 27.19 ± 3.29
COc1cc2c(cc1OC)C(=CC=Cc1ccc(N(C)C)cc1)C(=O)N2 [Compound 29] | 35.199 and 32.8298 and 30.2931 and 29.1162 | 31.86 ± 2.35
CCOc1ccc(Br)c(C=C2C(=O)Nc3ccc(Br)cc32)c1 [Compound 30] | 30.1563 and 42.48 and 35.4039 and 36.6749 | 36.18 ± 4.38
COc1cc(C)c(C=C2C(=O)Nc3ccccc32)cc1C [Compound 31] | 36.8879 and 36.7406 and 37.2822 and 33.8929 | 36.20 ± 1.35
COc1cc(OC)c(OC)cc1C=C1C(=O)Nc2ccc(Br)cc21 [Compound 32] | 37.3799 and 42.1343 and 35.9887 and 37.382 | 38.22 ± 2.33
O=C1Nc2cc(Cl)c(Cl)cc2C1=Cc1cc(Br)c(OCCO)c(Br)c1 [Compound 33] | 39.4036 and 41.0431 and 32.5156 and 41.2316 | 38.55 ± 3.55
CCOc1cccc(C=C2C(=O)Nc3ccc(Br)cc32)c1O [Compound 34] | 32.5833 and 35.4683 and 36.0421 and 51.0354 | 38.78 ± 7.19
COc1cc2c(cc1OC)C(=Cc1ccc(OC)c(OC)c1OC)C(=O)N2 [Compound 35] | – | 43.80 ± 10.34
COc1cc(C=C2C(=O)Nc3ccc(Br)cc32)ccc1O [Compound 36] | 48.1488 and 40.4194 and 43.1435 and 45.121 | 44.21 ± 2.82
COc1cc(C=C2C(=O)N(C(C)=O)c3ccc(Br)cc32)c(Br)cc1OC(C)=O [Compound 37] | 55.6586 and 50.2433 and 39.6211 and 39.558 | 46.27 ± 6.95
COc1cc(C=C2C(=O)Nc3ccc(Br)cc32)cc(OC)c1OC [Compound 38] | 42.8563 and 47.1155 and 46.6713 and 48.8801 | 46.38 ± 2.20
CCOc1c(O)ccc(C=C2C(=O)Nc3ccc(Br)cc32)c1[N+](=O)[O-] [Compound 39] | 52.2917 and 48.4313 and 42.763 and 42.1712 | 46.41 ± 4.18
O=C1Nc2ccc([N+](=O)[O-])cc2C1=Cc1cc(Br)c(OCCO)c(Br)c1 [Compound 41] | 35.3006 and 58.464 and 60.939 | 51.57 ± 11.55
O=C1Nc2cccc(Br)c2C1=Cc1cc(Br)c(OCCO)c(Br)c1 [Compound 43] | 65.9619 and 44.3044 and 51.8651 and 61.4106 | 55.89 ± 8.40
O=C1Nc2c(Br)cccc2C1=Cc1cc(Br)c(OCCO)c(Br)c1 [Compound 44] | 58.0241 and 42.9089 and 68.5528 and 58.6725 | 57.04 ± 9.16
O=C1Nc2cc(Br)ccc2C1=Cc1cc(Br)c(OCCO)c(Br)c1 [Compound 46] | – | 70.23 ± 9.63
O=C1C(=Cc2cc(Br)c(OCCO)c(Br)c2)c2ccccc2N1c1ccccc1 [Compound 47] | – | 72.76 ± 4.44
